According to patent US9796704B2, “Substituted quinazolines as receptor-type kinase inhibitors” (Symphony Evolution, Inc., priority 2002, dated 2017):

Legend:
EphA2 = EphA2 (Homo sapiens (Human), UniProt P29317); assay: EphA2 kinase inhibition, luciferase-coupled chemiluminescent assay (LCCA); details: read-out: EphA2 IC50
EGFR = EGFR (Homo sapiens (Human), UniProt P00533); assay: EGFR kinase inhibition, luciferase-coupled chemiluminescent assay (LCCA); details: read-out: EGFR IC50
ErbB2 = ErbB2 (Homo sapiens (Human), UniProt P04626); assay: ErbB2 kinase inhibition, AlphaScreen; type: biochemical
Description: Kinase activity and compound inhibition are investigated using one or more of the three assay formats described below. The ATP concentrations are selected near its Michaelis-Menten constant (KM) for each individual kinase. Dose-response experiments are performed at ten different inhibitor concentrations in a 384-well plate format. […] These parameters are obtained by nonlinear regression algorithm built into ActivityBase software (available from ID Business Solutions Ltd., of Guildford, Surrey, UK). ^33P Phosphoryl Transfer Assay (Radiometric)

KDR = KDR (Homo sapiens (Human), UniProt P35968); assay: KDR kinase inhibition, luciferase-coupled chemiluminescent assay (LCCA); details: read-out: KDR IC50
EphB4 = EphB4 (Homo sapiens (Human), UniProt P54760); assay: EphB4 kinase inhibition, 33P phosphoryl transfer assay (radiometric); type: biochemical
EphB4, sequence (P54760 605-890): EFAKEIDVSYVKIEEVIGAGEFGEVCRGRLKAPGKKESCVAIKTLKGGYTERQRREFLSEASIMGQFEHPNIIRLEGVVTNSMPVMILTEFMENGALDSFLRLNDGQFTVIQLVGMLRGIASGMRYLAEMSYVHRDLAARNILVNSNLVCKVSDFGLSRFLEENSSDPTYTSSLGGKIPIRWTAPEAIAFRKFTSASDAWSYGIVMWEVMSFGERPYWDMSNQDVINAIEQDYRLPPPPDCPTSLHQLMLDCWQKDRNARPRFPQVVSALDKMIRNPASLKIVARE

KDR, sequence (P35968 807-1356): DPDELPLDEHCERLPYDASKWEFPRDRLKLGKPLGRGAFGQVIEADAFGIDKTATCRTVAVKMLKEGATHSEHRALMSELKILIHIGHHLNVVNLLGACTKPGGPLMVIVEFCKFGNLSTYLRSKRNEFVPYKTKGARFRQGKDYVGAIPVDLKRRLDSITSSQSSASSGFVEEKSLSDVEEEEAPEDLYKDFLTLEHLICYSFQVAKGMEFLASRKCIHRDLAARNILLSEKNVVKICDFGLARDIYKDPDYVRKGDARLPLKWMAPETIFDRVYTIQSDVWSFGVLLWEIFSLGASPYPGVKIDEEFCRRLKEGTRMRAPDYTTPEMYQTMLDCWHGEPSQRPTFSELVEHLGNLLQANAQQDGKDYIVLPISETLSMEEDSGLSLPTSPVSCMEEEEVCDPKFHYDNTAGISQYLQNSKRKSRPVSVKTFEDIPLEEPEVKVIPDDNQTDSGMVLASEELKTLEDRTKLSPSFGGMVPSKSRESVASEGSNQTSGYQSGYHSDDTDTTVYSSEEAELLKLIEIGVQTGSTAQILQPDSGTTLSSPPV
EphA2, sequence (P29317 598-890): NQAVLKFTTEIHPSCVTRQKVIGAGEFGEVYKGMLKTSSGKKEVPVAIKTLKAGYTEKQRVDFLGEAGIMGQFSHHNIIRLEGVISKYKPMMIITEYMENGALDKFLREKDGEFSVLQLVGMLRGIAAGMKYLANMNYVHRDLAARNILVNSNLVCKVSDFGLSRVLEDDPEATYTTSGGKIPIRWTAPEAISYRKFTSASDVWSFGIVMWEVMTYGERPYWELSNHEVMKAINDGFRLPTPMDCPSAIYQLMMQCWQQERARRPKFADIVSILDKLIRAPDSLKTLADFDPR

`COc1cc2c(Nc3ccc(Cl)c(Cl)c3)ncnc2cc1OCc1csc(N2CCOCC2)n1` [Example 204, N-(3,4-dichlorophenyl)-6-(methyloxy)-7-{[(2-morpholin-4-yl-1,3-thiazol-4-yl)methyl]oxy}quinazolin-4-amine] gave an IC50 (EphA2) of under 50 nM, an IC50 (EGFR) of under 50 nM and an IC50 (ErbB2) of under 50 nM. The IC50 (KDR) was under 50 nM and the IC50 (EphB4) was under 50 nM.

Work on `COc1cc2c(Nc3ccc(Cl)c(Cl)c3)ncnc2cc1OCc1nc(-c2ccc(C(C)(C)C)cc2)no1` [Example 226, N-(3,4-dichlorophenyl)-7-[({3-[4-(1,1-dimethylethyl)phenyl]-1,2,4-oxadiazol-5-yl}methyl)oxy]-6-(methyloxy)quinazolin-4-amine] yielded an IC50 (EphA2) of 50 to 1000 nM, an IC50 (EGFR) of under 50 nM and an IC50 (ErbB2) of under 50 nM. It also gave an IC50 (KDR) of under 50 nM and an IC50 (EphB4) of under 50 nM.

`COc1cc2c(Nc3ccc(Cl)c(Cl)c3)ncnc2cc1OCc1ccc2nc(C(F)(F)F)cc(Cl)c2c1` [Example 236, 7-({[4-chloro-2-(trifluoromethyl)quinolin-6-yl]methyl}oxy)-N-(3,4-dichlorophenyl)-6-(methyloxy)quinazolin-4-amine] showed an IC50 (EphA2) of under 50 nM, an IC50 (EGFR) of under 50 nM and an IC50 (ErbB2) of under 50 nM. For the same molecule, the IC50 (KDR) was under 50 nM and the IC50 (EphB4) was under 50 nM.

In the case of `COc1cc2c(Nc3ccc(Cl)c(Cl)c3)ncnc2cc1OCCC1CCCN1C` (stereo not shown) [Example 237, N-(3,4-dichlorophenyl)-6-(methyloxy)-7-{[2-(1-methylpyrrolidin-2-yl)ethyl]oxy}quinazolin-4-amine], the IC50 (EphA2) is reported as under 50 nM, the IC50 (EGFR) is reported as under 50 nM and the IC50 (ErbB2) is reported as under 50 nM. For the same molecule, the IC50 (KDR) was under 50 nM and the IC50 (EphB4) was under 50 nM.

`CCN1CCC(c2nc(COc3cc4ncnc(Nc5ccc(Cl)c(Cl)c5)c4cc3OC)no2)CC1` [Example 238, N-(3,4-dichlorophenyl)-7-({[5-(1-ethylpiperidin-4-yl)-1,2,4-oxadiazol-3-yl]methyl}oxy)-6-(methyloxy)quinazolin-4-amine] showed an IC50 (EphA2) of under 50 nM, an IC50 (EGFR) of under 50 nM and an IC50 (ErbB2) of under 50 nM. The IC50 (KDR) was under 50 nM and the IC50 (EphB4) was under 50 nM.

For `COc1cc2c(Nc3ccc(Cl)c(Cl)c3)ncnc2cc1OCc1nc([C@@H]2CCCN2)no1` [Example 243, N-(3,4-dichlorophenyl)-6-(methyloxy)-7-[({3-[(2S)-pyrrolidin-2-yl]-1,2,4-oxadiazol-5-yl}methyl)oxy]quinazolin-4-amine], the IC50 (EphA2) was under 50 nM, the IC50 (EGFR) was under 50 nM and the IC50 (ErbB2) was under 50 nM. It also gave an IC50 (KDR) of under 50 nM and an IC50 (EphB4) of under 50 nM.

In the case of `COc1cc2c(Nc3ccc(Cl)c(Cl)c3)ncnc2cc1OCc1csc([C@@H]2CCCN2)n1` [Example 244, N-(3,4-dichlorophenyl)-6-(methyloxy)-7-[({2-[(2S)-pyrrolidin-2-yl]-1,3-thiazol-4-yl}methyl)oxy]quinazolin-4-amine], the IC50 (EphA2) is reported as under 50 nM, the IC50 (EGFR) is reported as under 50 nM and the IC50 (ErbB2) is reported as under 50 nM. The IC50 (KDR) was under 50 nM and the IC50 (EphB4) was under 50 nM.

Molecule `COc1cc2c(Nc3ccc(Cl)c(Cl)c3)ncnc2cc1OCc1csc(COC(=O)c2ccccc2)n1` [Example 245, [4-({[4-[(3,4-dichlorophenyl)amino]-6-(methyloxy)quinazolin-7-yl]oxy}methyl)-1,3-thiazol-2-yl]methyl benzoate] has an IC50 (EphA2) of under 50 nM, an IC50 (EGFR) of under 50 nM and an IC50 (ErbB2) of under 50 nM. The IC50 (KDR) was under 50 nM and the IC50 (EphB4) was under 50 nM.

With “N-(3,4-dichlorophenyl)-6-(methyloxy)-7-({[3-(4-methylpiperazin-1-yl)-1,2,4-oxadiazol-5-yl]methyl}oxy)quinazolin-4-amine [Example 33]” the IC50 (EphA2) was 50 to 1000 nM, the IC50 (EGFR) was under 50 nM and the IC50 (ErbB2) was 50 to 1000 nM. The IC50 (KDR) was under 50 nM and the IC50 (EphB4) was under 50 nM.

In the case of “N-(3,4-dichlorophenyl)-6-(methyloxy)-7-{[(5-methyl-4,5,6,7-tetrahydro[1,3]thiazolo[5,4-c]pyridin-2-yl)methyl]oxy}quinazolin-4-amine hydrochloride [Example 34]”, the IC50 (EphA2) is reported as 50 to 1000 nM, the IC50 (EGFR) is reported as under 50 nM and the IC50 (ErbB2) is reported as under 50 nM. It also gave an IC50 (KDR) of 50 to 1000 nM and an IC50 (EphB4) of 50 to 1000 nM.

“N-(3,4-dichlorophenyl)-7-{[(5-ethyl-4,5,6,7-tetrahydro[1,3]thiazolo[5,4-c]pyridin-2-yl)methyl]oxy}-6-(methyloxy)quinazolin-4-amine hydrochloride [Example 35]” showed an IC50 (EphA2) of 50 to 1000 nM, an IC50 (EGFR) of under 50 nM and an IC50 (ErbB2) of 50 to 1000 nM. For the same molecule, the IC50 (KDR) was under 50 nM and the IC50 (EphB4) was 50 to 1000 nM.
